From PubChem BioAssay AID1963986 (Molecular Pharmacology Branch, DTP, NCI, 2024)
Values belong to the molecule of their own block, whether it stands above or below them.

Test system: 171881-019-R-J1-PDC tumor spheroid viability
Experiment: Anticancer human tumor 171881-019-R-J1-PDC patient-derived invasive breast carcinoma cell line growth inhibition [PI3K]
Settings: spheroids with HUVEC and MSC; for IC50: curve of first compound; for viability, T/C: stronger effect = lower value
Text: Combinatorial screen of targeted agents with the PI3K inhibitors inavolisib, alpelisib, duvelisib, and copanlisib in multi-cell type tumor spheroids
A high-throughput screen of multi-cell type tumor spheroids was designed to identify active combinations of targeted small molecules and PI3K pathway inhibitors. Complex spheroids include a stromal component modeled by human endothelial cells (HUVEC) and fibroblasts modeled by human mesenchymal stem cells (MSCs). The concentration ranges selected for each drug and investigational agent were based upon clinically achievable concentrations if the clinical Cmax of the agent was known.
Compounds. The drugs and investigational agents: inavolisib (NSC800729), alpelisib (NSC765974), duvelisib (NSC772469), copanlisib (NSC816437), ipatasertib (NSC767898), afuresertib (NSC778305), talazoparib (NSC767125), sapanisertib (NSC764658), selumetinib (NSC741078), tovorafenib (DAY101, NSC766906), vemurafenib (NSC761431), ravoxertinib (NSC781343), sotorasib (NSC818433), MRTX1133 (NSC 836407), abemaciclib (NSC 768073), palbociclib (NSC758247), venetoclax (NSC 766270), SY5609 (NSC837396), enzalutamide (NSC755605), and darolutamide (NSC825331), were obtained from the National Cancer Institute (NCI) Developmental Therapeutics Program Chemical Repository. The FDA-approved anticancer drug set is available from the NCI Developmental Therapeutics Program. […] The stock solutions were prepared in dimethyl sulfoxide (DMSO, Sigma-Aldrich, St. Louis, MO, cat. D2650) at 800-fold the tested concentration and stored at -70 degrees C prior to their use. All drugs and investigational agents were tested over a range starting from a high concentration at or near the clinical Cmax and decreasing in half-log increments. If the clinical Cmax for an agent had not been determined, the highest concentration tested was 10 microM.
Cell Culture. All cells were maintained in an incubator at 37 degrees C and 5% CO2 with 95% humidity. The PDC lines were cultured according to standard operating procedures established by the NCI PDMR (https://pdmr.cancer.gov/sops/default.htm). All PDCs were thawed and cultured in Matrigel-coated flasks prepared with a working solution of 1X Ham's F-12 nutrient mix, without supplementation (Invitrogen, Waltham, MA, cat. 11765054), 100 U/mL penicillin-streptomycin (Invitrogen, cat. 15140122), and 2.5% Matrigel (Corning Inc., Corning, NY, cat. 354248) for the first three passages. The 354836-022-R-J1-PDC, 475296-252-R-J1-PDC, and 997726-040-R-J2-PDC lines were cultured in 6A media, which includes advanced DMEM/F-12 (Thermo Fisher Scientific, cat. 12634028), 10 mM HEPES (Thermo Fisher Scientific, cat. 15630080), 1X GlutaMAX supplement (Thermo Fisher Scientific, cat. 35050061), 0.1 mg/mL primocin (InvivoGen, San Diego, CA, cat. ant-pm-2), 10% defined fetal bovine serum, heat inactivated (HyClone Laboratories Inc., Logan, UT, cat. SH30070.03HI), 50% L-WRN conditioned media (ATCC, cat. CRL-3276), 1.25 mM N-Acetyl-L-cysteine (Sigma-Aldrich, cat. A9165), 10 mM nicotinamide (Sigma-Aldrich, cat. N0636), 1X B-27 supplement (Thermo Fisher Scientific, cat. 17504044), 1X N-2 supplement (Thermo Fisher Scientific, cat. 17502048), and 10 microM Y-27632 dihydrochloride (Tocris Bioscience, Bristol, United Kingdom, cat. 1254). The 624824-186-R-J2-PDC line was cultured in 6C/Colon 1B media, which includes all 6A media components plus 50 ng/mL human EGF recombinant protein (Thermo Fisher Scientific, cat. PHG0311). […]

[1] = second compound 0.0316 µM, first compound 0.000316 µM
[2] = second compound 0.0316 µM, first compound 0.001 µM
[3] = second compound 0.0316 µM, first compound 0.00316 µM
[4] = second compound 0.0316 µM, first compound 0.01 µM
[5] = second compound 0.0316 µM, first compound 0.0316 µM
[6] = second compound 0.0316 µM, first compound 0.1 µM
[7] = second compound 0.1 µM, first compound 0.000316 µM
[8] = second compound 0.1 µM, first compound 0.001 µM
[9] = second compound 0.1 µM, first compound 0.00316 µM
[10] = second compound 0.1 µM, first compound 0.01 µM
[11] = second compound 0.1 µM, first compound 0.0316 µM
[12] = second compound 0.1 µM, first compound 0.1 µM
[13] = second compound 0.316 µM, first compound 0.000316 µM
[14] = second compound 0.316 µM, first compound 0.001 µM
[15] = second compound 0.316 µM, first compound 0.00316 µM
[16] = second compound 0.316 µM, first compound 0.01 µM
[17] = second compound 0.316 µM, first compound 0.0316 µM
[18] = second compound 0.316 µM, first compound 0.1 µM
[19] = second compound 1 µM, first compound 0.000316 µM
[20] = second compound 1 µM, first compound 0.001 µM
[21] = second compound 1 µM, first compound 0.00316 µM
[22] = second compound 1 µM, first compound 0.01 µM
[23] = second compound 1 µM, first compound 0.0316 µM
[24] = second compound 1 µM, first compound 0.1 µM
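Also: spheroids exposed to compound for 7 days before viability read.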
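For viability, T/C in this document: 100% = DMSO vehicle-treated spheroids.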

IC50 (second compound 0.00316 µM): > 100 nM
IC50 (second compound 0.01 µM): > 100 nM
IC50 (second compound 0.0316 µM): > 100 nM
IC50 (second compound 0.1 µM): < 0.316 nM
IC50 (second compound 0.316 µM): < 0.316 nM
IC50 (second compound 1 µM): < 0.316 nM
Structure (SMILES): Cn1ncnc1[C@H]1c2n[nH]c(=O)c3cc(F)cc(c23)N[C@@H]1c1ccc(F)cc1 + CC(Nc1ccc2c(c1)OCCn1cc(N3C(=O)OCC3C(F)F)nc1-2)C(N)=O
viability, T/C (second compound 0.00316 µM, first compound 0.000316 µM): 85.4%
viability, T/C (second compound 0.00316 µM, first compound 0.001 µM): 96.5%
viability, T/C (second compound 0.00316 µM, first compound 0.00316 µM): 95.2%
viability, T/C (second compound 0.00316 µM, first compound 0.01 µM): 91.6%
viability, T/C (second compound 0.00316 µM, first compound 0.0316 µM): 95.9%
viability, T/C (second compound 0.00316 µM, first compound 0.1 µM): 70.6%
viability, T/C (second compound 0.01 µM, first compound 0.000316 µM): 79%
viability, T/C (second compound 0.01 µM, first compound 0.001 µM): 76.4%
viability, T/C (second compound 0.01 µM, first compound 0.00316 µM): 78.2%
viability, T/C (second compound 0.01 µM, first compound 0.01 µM): 65.5%
viability, T/C (second compound 0.01 µM, first compound 0.0316 µM): 81.5%
viability, T/C (second compound 0.01 µM, first compound 0.1 µM): 71.5%
viability, T/C [1]: 54%
viability, T/C [2]: 55.7%
viability, T/C [3]: 51.5%
viability, T/C [4]: 52%
viability, T/C [5]: 55.3%
viability, T/C [6]: 48.7%
viability, T/C [7]: 37.8%
viability, T/C [8]: 38.9%
viability, T/C [9]: 36.8%
viability, T/C [10]: 38%
viability, T/C [11]: 36.8%
viability, T/C [12]: 34.5%
viability, T/C [13]: 26.2%
viability, T/C [14]: 26.3%
viability, T/C [15]: 26.1%
viability, T/C [16]: 25%
viability, T/C [17]: 26.2%
viability, T/C [18]: 21.1%
viability, T/C [19]: 21.7%
viability, T/C [20]: 18.7%
viability, T/C [21]: 21.2%
viability, T/C [22]: 18.6%
viability, T/C [23]: 19.8%
viability, T/C [24]: 17.7%

IC50 (second compound 0.0316 µM): > 100 nM
IC50 (second compound 0.1 µM): > 100 nM
IC50 (second compound 0.316 µM): > 100 nM
IC50 (second compound 1 µM): > 100 nM
IC50 (second compound 3.16 µM): > 100 nM
IC50 (second compound 10 µM): > 100 nM
Structure (SMILES): CC(=O)c1c(C)c2cnc(Nc3ccc(N4CCNCC4)cn3)nc2n(C2CCCC2)c1=O + CC(Nc1ncnc2nc[nH]c12)c1cc2cccc(Cl)c2c(=O)n1-c1ccccc1
viability, T/C [1]: 91.9%
viability, T/C [2]: 88%
viability, T/C [3]: 93%
viability, T/C [4]: 90.6%
viability, T/C [5]: 102%
viability, T/C [6]: 92.9%
viability, T/C [7]: 99.9%
viability, T/C [8]: 96.8%
viability, T/C [9]: 98.3%
viability, T/C [10]: 91.7%
viability, T/C [11]: 97.6%
viability, T/C [12]: 88.7%
viability, T/C [13]: 91%
viability, T/C [14]: 88.5%
viability, T/C [15]: 96%
viability, T/C [16]: 107%
viability, T/C [17]: 106%
viability, T/C [18]: 87.8%
viability, T/C [19]: 104%
viability, T/C [20]: 87.6%
viability, T/C [21]: 100%
viability, T/C [22]: 94.9%
viability, T/C [23]: 102%
viability, T/C [24]: 82.2%
viability, T/C (second compound 3.16 µM, first compound 0.000316 µM): 94.2%
viability, T/C (second compound 3.16 µM, first compound 0.001 µM): 90.3%
viability, T/C (second compound 3.16 µM, first compound 0.00316 µM): 91.2%
viability, T/C (second compound 3.16 µM, first compound 0.01 µM): 93.2%
viability, T/C (second compound 3.16 µM, first compound 0.0316 µM): 103%
viability, T/C (second compound 3.16 µM, first compound 0.1 µM): 79.1%
viability, T/C (second compound 10 µM, first compound 0.000316 µM): 62.4%
viability, T/C (second compound 10 µM, first compound 0.001 µM): 60.1%
viability, T/C (second compound 10 µM, first compound 0.00316 µM): 59.1%
viability, T/C (second compound 10 µM, first compound 0.01 µM): 63.8%
viability, T/C (second compound 10 µM, first compound 0.0316 µM): 64.9%
viability, T/C (second compound 10 µM, first compound 0.1 µM): 56.9%

Structure (SMILES): CC1(C)CCC(CN2CCN(c3ccc(C(=O)NS(=O)(=O)c4ccc(NCC5CCOCC5)c([N+](=O)[O-])c4)c(Oc4cnc5[nH]ccc5c4)c3)CC2)=C(c2ccc(Cl)cc2)C1
viability, T/C (compound 0.0316 µM): 90.2% [middle of 4 runs]
viability, T/C (compound 0.1 µM): 87.8% [middle of 4 runs]
viability, T/C (compound 1 µM): 86.9% [middle of 4 runs]
viability, T/C (compound 3.16 µM): 63.4% [middle of 4 runs]
